Experimental findings from article PMC10117725, “From an Hsp90 - binding protein to a peptide drug” (microLife, 2022) are described below.

Data set [1] concerns S. aureus USA300 infected PBMCs. As to the kind of experiment: Cytokine release of S. aureus USA300 infected PBMCs (ELISA). The note with it: L15 20 µM, L13 30 µM, geldanamycin 5 µM, 20 h, vs unstimulated infected PBMCs. The class given is cell-based, human.
Data set [2] relates to F-actin levels in HaCaT cells. As to the kind of experiment: F-actin measurement (ActinGreen 488 fluorescence) in HaCaT cells. The class given is cell-based, human. As to conditions: 35 µg/ml peptide (L15 20 µM, L13 30 µM), geldanamycin 5 µM; 1.5 h; ActinGreen 488 fluorescence relative to control. As for the experimental part:
(§1) About 5 × 10^4 cells were seeded in black flat bottom 96 well cell culture microplate (Greiner, Germany) and incubated overnight. The cells were then incubated with peptides or geldanamycin for 1.5 h. After incubation, the cells were washed, permeabilised with 0.1% (v/v) Triton X-100 and stained with ActinGreen™ 488 ReadyProbes® (Thermo Fischer, Germany) for 30 min. After the staining, the cells were washed and measure for its fluorescence at Excitation/Emission: 495/518 nm (Luqman et al. [2020]).

Another data set relates to MONO-MAC-6 (MM6) cells. As to the kind of experiment: MTT cytotoxicity in MM6 cells. The class given is cell-based, human. The note with it: 24 h, 1–200 µM. On the procedure:
(§2) MTT (3-(4,5-dimethylthiazol-2-yl)-2,5-diphenyl tetrazolium bromide) assay was employed to analyze the cytotoxicity of peptides and geldanamycin to the cells. 5 × 10^5 cells were seeded in a 96 flat bottom well plate and incubated for 2.5 or 24 h at 37°C with 5% CO2. The cells were then treated with increasing concentration (0 to 200 µM) of peptides or geldanamycin for 24 h. After the incubation, 10 μl of the MTT labelling reagent is added to each well to attain a final concentration 0.5 mg/ml, followed by 4 h incubation. Metabolically active cells convert the yellow tetrazolium salt to purple formazan crystals, which were solubilized using the solubilization solution (DMSO) and measured for absorbance at λmax/λref–570/690 nm (Saising et al. [2018]).

Data set [3] deals with F-actin levels in N/TERT-1 cells. As to the kind of experiment: F-actin measurement (ActinGreen 488 fluorescence) in N/TERT-1 cells. As to conditions: L15 20 µM, L13 30 µM, geldanamycin 5 µM; 1.5 h; relative to control. The class given is cell-based, human. On the procedure:
as §1

Data set [4] has as its system S. aureus USA300 internalization by HaCaT cells. As to the kind of experiment: S. aureus USA300 invasion (internalization) into HaCaT keratinocytes. The class given is cell-based, human. On the procedure:
The invasion protocol was adapted from our previous papers (Nguyen et al. [2015], Tribelli et al. [2020]). About 5 × 10^5 Keratinocytes were seeded in a 24 well plate (Greiner, Frickenhausen, Germany) to attain a monolayer of ∼10^6 cells/well. Staphylococcusaureus was grown overnight at 37°C, centrifuged and suspended in invasion medium (DMEM with 10% FBS for HaCaT and K-SFM for NTERT-1 cells). The adherent keratinocytes were […], or 5 µM geldanamycin (Sigma-Aldrich, Germany) or monoclonal antibodies specific against Hsp90α (α‐Hsp90α, Abcam) for 1 h. After 1 h, 100 µl of bacterial suspension was added to each well to attain a MOI (multiplicity of infection) of 30 and incubated with cells for 1.5 h. Subsequently, the extracellular bacteria were killed with treatment of 2.5 μg/ml lysostaphin (Sigma-Aldrich, Germany) for 1.5 h. The cells were then washed, lysed, mechanically detached by scraping, diluted, and enumerated on TSA (Tryptic Soy Agar) plates to quantify the intracellular bacteria.

A further data set relates to S. aureus Newman. As to the kind of experiment: Galleria mellonella larvae infection model, S. aureus Newman. Type of data set: in vivo. As for the experimental part:
(§3) Galleria mellonella larvae, purchased from Feeders & more GmbH, Germany, were sorted based on weight and used within one week. Ten larvae per group with weight average of 500 mg/larvae were injected with bacteria and/or peptides on its last proleg using a BD insulin syringe. The dosage used for the experiment were 60 mg/kg for peptides, 5 mg/kg of geldanamycin and 20 mg/kg for vancomycin. Each larva was injected with 10 µl of L15 (last left proleg) 1 h before administration of 10^6 cfu S. aureus (last right proleg). The larvae were maintained at 37°C and observed for mortality every day over the course of 5 days.

The next data set deals with HaCaT cells. As to the kind of experiment: MTT cytotoxicity in HaCaT cells. The class given is cell-based, human. The note with it: MTT, 24 h, 1–200 µM. As for the experimental part: as §2
Data set [5] deals with Galleria mellonella larvae. As to the kind of experiment: Toxicity of tested doses to Galleria mellonella larvae. On the procedure: as §3
Data set [6] relates to S. aureus USA300 invasion into N/TERT-1 cells. As to the kind of experiment: S. aureus USA300 invasion into N/TERT-1 keratinocytes. Type of data set: cell-based, human. The note with it: pretreatment with L15 20 µM, L13 30 µM, geldanamycin 5 µM or α-Hsp90α antibody. As for the experimental part:
The invasion protocol was adapted from our previous papers (Nguyen et al. [2015], Tribelli et al. [2020]). About 5 × 10^5 Keratinocytes were seeded in a 24 well plate (Greiner, Frickenhausen, Germany) to attain a monolayer of ∼10^6 cells/well. Staphylococcusaureus was grown overnight at 37°C, centrifuged and suspended in invasion medium (DMEM with 10% FBS for HaCaT and K-SFM for NTERT-1 cells). The adherent keratinocytes were washed with PBS and supplemented with invasion medium followed by treatment with 20 µM of L15, 30 µM of L13, or 5 µM geldanamycin (Sigma-Aldrich, Germany) or monoclonal antibodies specific against Hsp90α (α‐Hsp90α, Abcam) for 1 h. After 1 h, 100 µl of bacterial suspension was added to each well to attain a MOI (multiplicity of infection) of 30 and incubated with cells for 1.5 h. Subsequently, the extracellular bacteria were killed with treatment of 2.5 μg/ml lysostaphin (Sigma-Aldrich, Germany) for 1.5 h. The cells were then washed, lysed, mechanically detached by scraping, diluted, and enumerated on TSA (Tryptic Soy Agar) plates to quantify the intracellular bacteria.

The subject of data set [7] is phagocytosis by primary human CD14+ monocytes. As to the kind of experiment: Phagocytosis of S. aureus USA300 by CD14+ monocytes. The class given is cell-based. The note with it: L15 20 µM, L13 30 µM, geldanamycin 5 µM, 60 min preincubation; MOI 30, 90 min; n = 4 donors; SEM. On the procedure: Peripheral Blood Mononuclear cells (PBMCs) were isolated by density gradient centrifugation following the previous study (Nguyen et al. [2022]). From the pool of PBMCs, monocytes were isolated by positive selection with anti-human CD14 microbeads (Miltenyi Biotech, Bergisch-Gladbach, Germany) following a previously reported protocol (Nguyen et al. [2022]). The purity was analysed by flow cytometry on a BD Accuri C6 (BD Biosciences, Heidelberg, Germany) with anti-human CD14-FITC, CD45-PE and propidium iodide (BD Biosciences, Heidelberg, Germany) and ranged from 85% to 98%.
For the phagocytosis, 10^6 CD14^+ monocytes were seeded in 1 ml of medium (RPMI supplemented with L-Glutamine and 10% FCS) in a 12 well plate (Greiner, Germany). The cells were incubated with 20 µM of L15, 30 µM of L13, or 5 µM of Geldanamycin for 60 min at 37°C and 5% CO2 before addition of bacteria. For the phagocytosis assay, bacterial cells were resuspended in 100 µl RPMI medium at MOI of 30 and incubated with monocytes for 90 min. The cells were washed once with PBS and 0.5 ml of medium supplemented with 2.5 µg/ml of Lysostaphin was added for 90 min to remove the extracellular bacteria. Then, monocytes were washed twice with PBS and resuspended in 0.5 ml of milliQ dH2O. The cells were scraped, and the lysed solution was transferred into a new 1.5 ml Eppendorf tube for a 5 min sonication (frequency 80, power 100) at room temperature to prevent the bacterial cell clumping by using ultrasonic water bath Elmasonic P (Elma Schmidbauer Gmb, Singen, Germany). About 10 µl fractions of undiluted, 10^−1, 10^−2, and 10^−3 dilutions were inoculated on tryptic soy agar (TSA) plates and incubated overnight at 37°C. The numbers of internalized bacteria were determined based on the manual counting of bacterial colony forming units (cfu) recovered on the agar plates.

The target of the next data set is T1, Hsp90α (Homo sapiens, UniProt P07900).
T1 construct: purchased Abcam
Type of data set: binding. As to conditions: dot blot, 2 µg blotted on membrane, 20 µg recombinant Hsp90α at 4°C overnight, α-Hsp90α immunodetection. As for the experimental part:
Two µg of each peptide was blotted (dot blot) directly on PDV nitrocellulose membrane and blocked with ROTI®Block (Carl Roth, Germany). After washing, the membrane was then incubated with 20 μg of recombinant Hsp90α (Abcam)/Lpl1-his protein at 4°C overnight. In case of interaction studies with Hsp90α, α-Hsp90α (produced in mouse, Abcam) was used as the primary antibody and for interaction studies with Lpl1-his, Anti-6X His tag antibody (also produced in mouse, Sigma-Aldrich, Germany) was used. Alkaline phosphatase conjugated goat-α-mouse IgG (Sigma-Aldrich, Germany) served as the secondary antibody. Detection was done using BCIP®/NBT solution (Sigma, Germany). Lpl1-his was isolated and purified as described in our previous paper (Tribelli et al. [2020]).

Take `COC1=C2C[C@@H](C)C[C@H](OC)[C@H](O)[C@@H](C)/C=C(\C)[C@H](OC(N)=O)[C@@H](OC)/C=C\C=C(/C)C(=O)NC(=CC1=O)C2=O` [Geldanamycin, geldanamycin, reference compound]: in data set [1] (n = 4), the “TNF-alpha production of infected PBMCs” value is reported as “inhibited”. Also, in [1] (n = 5), the “IL-6 production of infected PBMCs” value is recorded as “inhibited”. For the same molecule, in data set [2], the “Relative F-actin level in HaCaT” value was 0.88 ± 0.03. The “concentration from which viability decreased, MM6” value in the data set on MONO-MAC-6 (MM6) cells is on record as at least 10 µM. The “relative F-actin content in N/TERT-1 cells” value in data set [3] is 0.82 ± 0.03. Besides, the “decrease in uptake/invasion of S. aureus USA300 by HaCaT cells compared to untreated control” value in data set [4] (preincubation with L15 20 µM, L13 30 µM, geldanamycin 5 µM or α-Hsp90α antibody, MOI 30) is “approximately 75%”. Further, the “effect on survival of infected larvae” value in the data set on S. aureus Newman (geldanamycin 5 mg/kg 1 h before infection, strain not restated in the sentence) was “no or rather a negative effect on survival”. Also, in the data set with HaCaT cells, the “concentration from which viability decreased gradually, HaCaT” value was at least 50 µM. In addition, the “toxicity of tested doses to larvae” value in data set [5] (in vivo) is “not toxic to larvae”. The “invasion of S. aureus USA300 into N/TERT-1 cells” value in data set [6] is “reduced USA300 invasion”. In data set [7], the “decrease of phagocytosis of S. aureus into CD14+ monocytes” value is on record as “no significant impact”.
Take `CN[C@H](CC(C)C)C(=O)N[C@H]1C(=O)N[C@@H](CC(N)=O)C(=O)N[C@H]2C(=O)N[C@H]3C(=O)N[C@H](C(=O)N[C@H](C(=O)O)c4cc(O)cc(O)c4-c4cc3ccc4O)[C@H](O)c3ccc(c(Cl)c3)Oc3cc2cc(c3O[C@@H]2O[C@H](CO)[C@@H](O)[C@H](O)[C@H]2O[C@H]2C[C@](C)(N)[C@H](O)[C@H](C)O2)Oc2ccc(cc2Cl)[C@H]1O` [vancomycin, reference compound]: the “larvae surviving on day 5, S. aureus Newman” value in the data set on S. aureus Newman (peptides 60 mg/kg, vancomycin 20 mg/kg, injected 1 h before 10^6 cfu, 37°C) came to 100%. For the same molecule, the “toxicity of tested doses to larvae” value in data set [5] (peptides 60 mg/kg, geldanamycin 5 mg/kg, vancomycin 20 mg/kg) is “not toxic to larvae”.
For the molecule “DEIVKELRSRYNISTEKSPILKMHIDGDLKGSSVGYRKLEI DFSKRENSKLSVIEFLSYKPAKK [L26, Lpl1-derived peptide that increased S. aureus internalization]”, the “Relative F-actin level in HaCaT” value in data set [2] stood at 1.25 ± 0.13. The “increase of invasion into HaCaT” value in [4] (positive control peptides, S. aureus USA300) is recorded as “approximately 1.5 fold”. Also, the “Interaction with Hsp90α” value on Hsp90α is “Yes”.
In the case of EMKNNKIIL [L17, Lpl1-derived peptide], in [2], the “Relative F-actin level in HaCaT” value stood at 1.09 ± 0.20. Moreover, the “Interaction with Hsp90α” value on Hsp90α was “No”.
Taken in the same sequence, the figures for GKGNETKED [L1, Lpl1-derived peptide] were 0.95 ± 0.49 and “No”.
Taken in the same sequence, the figures for NKPGEL [L8, Lpl1-derived peptide] were 0.96 ± 0.05 and “No”.
